Structures are written as SMILES.

The first assay has as its system green peach aphid (Myzus persicae). In words: Myzus test (MYZUPE spray treatment), Chinese cabbage leaf discs. The assay is classed as in vivo. As to conditions: foliar, application rate of 500 g/ha, spray on Chinese cabbage discs, read-out: effect in % (aphids killed). As for the experimental part: Myzus Test (MYZUPE Spray Treatment)
Solvents: 78 parts by weight of acetone • • 1.5 parts by weight of dimethylformamide Emulsifier: 0.5 part by weight of alkylaryl polyglycol ether
An appropriate preparation of active ingredient is prepared by mixing 1 part by weight of active ingredient with the stated amounts of solvents and emulsifier and diluting the concentrate with emulsifier-containing water to the desired concentration.
Discs of Chinese cabbage (Brassica pekinensis) infested with all stages of the green peach aphid (Myzus persicae) are sprayed with a preparation of active ingredient at the desired concentration.
After the desired time, the effect in % is determined. Here, 100% means that all of the aphids have been killed; 0% means that no aphids have been killed.
In the case of `CC(C)C(=O)Nc1cccc(C(=O)Nc2cccnc2)c1` [I-286], the pest or weed control at 500 g/ha is at least 80%. As to `COc1ccc(C(=O)N(C)c2cccnc2)cc1NC(=O)OC(C)C` [I-337], the pest or weed control at 500 g/ha was at least 80%.

`CN(C(=O)c1cnn(-c2ncccn2)c1C(C)(F)F)c1cccnc1` [I-277]: the pest or weed control at 500 g/ha is at least 80%. On the same count and under the same terms, next, `COc1ccc(C(=O)N(C)c2cccnc2)cc1OC` [I-260]: at least 80%; `CCn1ncc(C(=O)Nc2cccnc2)c1C(F)(F)F` [I-287]: at least 80%.

In the case of `Cc1ccc(C(=O)N(C)c2cccnc2)cc1NC(=O)C1CCCC1` [I-312], the pest or weed control at 500 g/ha was at least 80%.

Turning to `CN(C(=O)c1cn(C)nc1C1CC1)c1ccnnc1` [I-324], the pest or weed control at 500 g/ha is at least 80%. For the compound `COc1ccc(C(=O)Nc2cccnc2)cc1NC(=O)C1CC1` [I-293], the pest or weed control at 500 g/ha was at least 80%.

On to `COCC(=O)Nc1cc(C(=O)N(C)c2cccnc2)ccc1OC` [I-335], for which the pest or weed control at 500 g/ha was at least 80%. Turning to `CC(C)=CC(=O)Nc1cc(C(=O)N(C)c2cccnc2)ccc1C` [I-318], the pest or weed control at 500 g/ha is at least 80%. The same measure, in the same setting: next, `COc1ccc(C(=O)N(C)c2cccnc2)cc1NS(=O)(=O)C(C)C` [I-334]: at least 80%; `CN(C(=O)c1cnn(-c2ncccc2Cl)c1C(F)(F)F)c1cccnc1` [I-272]: at least 80%.

For `C/C=C/C(=O)Nc1cc(C(=O)N(C)c2cccnc2)ccc1C` [I-317], the pest or weed control at 500 g/ha is at least 80%. With `CN(C(=O)c1ccc2c(c1)OC(F)(F)O2)c1cccnc1` [I-261], the pest or weed control at 500 g/ha was at least 80%.

The test system is the same in another assay. In words: Myzus test (MYZUPE), sprayed aubergine plants. The assay is classed as in vivo. As to conditions: application rate of 100 ppm, spray on aubergine plants, read-out: effect in % (aphids killed). As for the experimental part:
Solvent: 3 parts by weight of dimethylformamide Emulsifier: 1 part by weight of polyoxyethylenealkyl phenyl ether
An appropriate preparation of active ingredient is prepared by mixing 1 part by weight of active ingredient with the stated amount of solvent and emulsifier and diluting the concentrate with water to the desired concentration.
Aubergine plants (Solanum melongena) infested by all stages of the green peach aphid (Myzus persicae) are sprayed with a preparation of active ingredient at the desired concentration.
After the desired time, the effect in % is determined; here, 100% means that all of the aphids have been killed. Conversely, 0% means that no aphids have been killed.
In the case of `CCSc1ccc(C(=O)N(CC)c2cccnc2)cc1` [I-65], the pest or weed control at 100 ppm is at least 80%.

The same assay, now with this note: application rate of 500 ppm, spray on aubergine plants, read-out: effect in % (aphids killed).
`CN(C(=O)c1ccc(Cn2nc(C(F)(F)F)nc2C(F)(F)F)nc1)c1cccnc1` [I-50]: the pest or weed control at 500 ppm was at least 80%.

For the compound `CCN(C(=O)c1ccc(Oc2ccc([N+](=O)[O-])cc2)nc1)c1cccnc1` [I-163], the pest or weed control at 500 ppm is at least 80%. The same measure, in the same setting: then `CN(C(=O)c1ccc(C(=O)NCc2ccccc2)cc1)c1cccnc1` [I-255], with at least 80%; and `CCN(C(=O)c1ccc(Oc2nc(C)cc(C)n2)cc1)c1cccnc1` [I-183], with at least 80%. For the compound `CCN(C(=O)c1ccc(Oc2ccc(C)cn2)nc1)c1cccnc1` [I-193], the pest or weed control at 500 ppm was at least 80%. Still for that read-out and setting: then `CN(C(=O)c1ccc(SC(F)(F)F)cc1)c1cccnc1` [I-54], with at least 80%; and `CN(C(=O)c1ccc(Oc2ccc3cccnc3c2)nc1)c1cccnc1` [I-141], with at least 80%; and `O=C(Nc1cccnc1)c1ccc(NCC2CC2)nc1` [I-210], with at least 80%. As for `O=C(Nc1cccnc1)c1ccc(Oc2ccccc2Cl)nc1` [I-82], the pest or weed control at 500 ppm is at least 80%. For `CSCc1ccc(C(=O)N(C)c2cccnc2)cn1` [I-64], the pest or weed control at 500 ppm was at least 80%. As to `CN(C(=O)c1ccc(Cn2nc(C(F)(F)F)nc2C(F)(F)F)cc1)c1cccnc1` [I-26], the pest or weed control at 500 ppm was at least 80%. As to `COc1nc(OC)nc(Sc2ccc(C(=O)Nc3cccnc3)cc2)n1` [I-188], the pest or weed control at 500 ppm is at least 80%. Regarding `CSCc1cccc(C(=O)N(C)c2cccnc2)c1` [I-57], the pest or weed control at 500 ppm was at least 80%. On to `CN(C(=O)c1ccc(CSC(F)F)cc1)c1cccnc1` [I-62], for which the pest or weed control at 500 ppm is at least 80%. On the same count and under the same terms, then `Cc1ccnc(Sc2ncc(C(=O)N(C)c3cccnc3)cc2Cl)n1` [I-166], with at least 80%; and `CN(C(=O)c1ccc(Oc2ccc(Cl)cc2)nc1)c1cccnc1` [I-91], with at least 80%; and `CCCSCc1ccc(C(=O)N(C)c2cccnc2)cc1` [I-60], with at least 80%. On to `COc1cc(OC)nc(Sc2ccc(C(=O)Nc3cccnc3)cn2)n1` [I-173], for which the pest or weed control at 500 ppm is at least 80%.

On to `COc1cc(OC)nc(Oc2ccc(C(=O)N(C)c3cccnc3)cn2)n1` [I-145], for which the pest or weed control at 500 ppm is at least 80%.

Take `CCN(C(=O)c1ccc(Oc2ccc(C(F)(F)F)cc2)nc1)c1cccnc1` [I-157]: the pest or weed control at 500 ppm was at least 80%. On the same count and under the same terms, then `CCN(C(=O)c1ccc(SC)cc1)c1cccnc1` [I-63], with at least 80%; and `Cc1cc(C)nc(Sc2ccc(C(=O)N(Cc3ccc(OC(F)(F)F)cc3)c3cccnc3)cn2)n1` [I-230], with at least 80%; and `COc1ccc(Oc2ccc(C(=O)N(C)c3cccnc3)cn2)cc1` [I-92], with at least 80%.

`COc1cc(OC)nc(Oc2ccc(C(=O)Nc3cccnc3)cn2)n1` [I-168]: the pest or weed control at 500 ppm is at least 80%. As to `O=C(Nc1cccnc1)c1ccc(N2CCOCC2)nc1` [I-212], the pest or weed control at 500 ppm was at least 80%. In the case of `CC#CCN(C(=O)c1ccc(Sc2nc(C)cc(C)n2)nc1)c1cccnc1` [I-226], the pest or weed control at 500 ppm is at least 80%. With `O=C(Nc1cccnc1)c1ccc(Oc2cccc(C(F)(F)F)c2)nc1` [I-88], the pest or weed control at 500 ppm was at least 80%. For `Cc1cc(C)nc(SCc2ccc(C(=O)N(C)c3cccnc3)cc2)n1` [I-70], the pest or weed control at 500 ppm was at least 80%.

In the case of `Cc1cc(C)nc(Sc2ccc(C(=O)N(Cc3ccccc3)c3cccnc3)cn2)n1` [I-227], the pest or weed control at 500 ppm is at least 80%. As for `CN(C)C(=O)c1ccc(C(=O)Nc2cccnc2)cc1` [I-41], the pest or weed control at 500 ppm was at least 80%. For `CN(C(=O)c1ccc(NC(=O)CC(F)(F)F)cc1)c1cccnc1` [I-51], the pest or weed control at 500 ppm is at least 80%. Regarding `CC(C)SCc1ccc(C(=O)Nc2cccnc2)cc1` [I-34], the pest or weed control at 500 ppm was at least 80%.

Take `CSc1ccc(C(=O)Nc2cccnc2)cn1` [I-108]: the pest or weed control at 500 ppm is at least 80%. Regarding `CN(C(=O)c1cccc(Cn2cnc(C(F)(F)F)n2)c1)c1cccnc1` [I-12], the pest or weed control at 500 ppm was at least 80%. For the compound `CCCSc1ccc(C(=O)Nc2cccnc2)cc1` [I-68], the pest or weed control at 500 ppm was at least 80%. As to `C#CCN(C(=O)c1ccc(Cl)nc1)c1cccnc1` [I-232], the pest or weed control at 500 ppm is at least 80%. Regarding `O=C(Nc1cccnc1)c1ccc(C(=O)N2CCCC2)cc1` [I-42], the pest or weed control at 500 ppm was at least 80%. Consider `Cc1cc(C)nc(Sc2ccc(C(=O)N(Cc3ccc([N+](=O)[O-])cc3)c3cccnc3)cn2)n1` [I-229], for which the pest or weed control at 500 ppm was at least 80%. With `CCN(C(=O)c1cccc(OCc2nc(OC)cc(OC)n2)c1)c1cccnc1` [I-208], the pest or weed control at 500 ppm was at least 80%. Regarding `O=C(Nc1cccnc1)c1ccc(Cn2cnc(C(F)(F)C(F)(F)F)n2)cc1` [I-17], the pest or weed control at 500 ppm was at least 80%. As to `C#CCN(C(=O)c1ccc(Oc2ccc(OC(F)(F)F)cc2)nc1)c1cccnc1` [I-135], the pest or weed control at 500 ppm was at least 80%. Still for that read-out and setting: then `CCN(C(=O)c1ccc(Oc2ccc(OC(F)(F)F)cc2)nc1)c1cccnc1` [I-132], with at least 80%; and `O=C(Nc1cccnc1)c1ccc(Cn2nc(C(F)(F)F)cc2C(F)(F)F)nc1` [I-9], with at least 80%. In the case of `CCN(C)C(=O)c1cc(C(=O)N(C)c2cccnc2)ccc1OC` [I-77], the pest or weed control at 500 ppm was at least 80%.

`C=CCN(C(=O)c1ccc(Sc2nc(C)cc(C)n2)nc1)c1cccnc1` [I-224]: the pest or weed control at 500 ppm is at least 80%. As for `COc1ccc(C(=O)Nc2cccnc2)cc1C(=O)NC(C)C` [I-78], the pest or weed control at 500 ppm is at least 80%. For `CN(C(=O)c1ccc(Oc2ccccc2Cl)nc1)c1cccnc1` [I-98], the pest or weed control at 500 ppm was at least 80%. Same read-out and setting: then `O=C(Nc1cccnc1)c1ccc(Oc2ccc(C(F)(F)F)cc2)nc1` [I-109], with at least 80%. As to `CN(C(=O)c1cnc(Oc2ccc(S(C)(=O)=O)cc2)c(Cl)c1)c1cccnc1` [I-148], the pest or weed control at 500 ppm is at least 80%. Consider `CN(C(=O)c1ccc(Sc2ccc(Cl)cc2)nc1)c1cccnc1` [I-107], for which the pest or weed control at 500 ppm was at least 80%. Same read-out and setting: next, `O=C(Nc1cccnc1)c1ccc(Cn2cc(Br)c(C(F)(F)F)n2)cc1` [I-20]: at least 80%; `CCN(C(=O)c1ccc(Sc2nc(C)cc(C)n2)nc1)c1cccnc1` [I-192]: at least 80%. Take `O=C(Nc1cccnc1)c1ccc(Sc2ncccn2)nc1` [I-194]: the pest or weed control at 500 ppm was at least 80%. With `CN(C(=O)c1ccc(Oc2ccc(Cl)cc2C#N)nc1)c1cccnc1` [I-113], the pest or weed control at 500 ppm was at least 80%. For the compound `CCN(C(=O)c1ccc(Sc2ncccn2)nc1)c1cccnc1` [I-196], the pest or weed control at 500 ppm is at least 80%. `CN(C(=O)c1ccc(Oc2ccc(Cl)c(Cl)c2)nc1)c1cccnc1` [I-115]: the pest or weed control at 500 ppm is at least 80%.

`CCN(C(=O)c1ccc(Sc2nc(OC)cc(OC)n2)cc1)c1cccnc1` [I-178]: the pest or weed control at 500 ppm is at least 80%. In the case of `CSc1cccc(C(=O)N(C)c2cccnc2)c1` [I-69], the pest or weed control at 500 ppm is at least 80%.

Staying with this assay, now noted: read-out: effect in % (aphids killed).
In the case of `O=C(Nc1cccnc1)c1ccc(C(F)(F)C(F)(F)C(F)(F)F)cc1` [I-29], the pest or weed control at 500 ppm was at least 80%.

With `CCN(C(=O)c1ccc(N(C)C(=O)C(F)(F)C(F)(F)C(F)(F)F)cc1)c1cccnc1` [I-248], the pest or weed control at 500 ppm is at least 80%.

For the origin of these results see patent US20100305124A1, “Acylated Aminopyridine and Aminopyridazine Insecticides” (BAYER CROPSCIENCE AG, priority 2009, published 2010).
